Measurements: patent US12390405B2, “Personal care compositions” (Colgate-Palmolive Company, priority 2021, dated 2025)

What was measured:
[1] = tested on: human skin (leftover from abdominal plastic surgery); experiment: Wound healing on ex vivo human skin
Description: The ability of various molecular weights of hyaluronic acid (HA) are tested to determine their respective properties relative to wound healing and repair.
In this study, human skin (leftover from abdominal plastic surgery) is used. An N=6 skin samples are used for each test condition for statistical comparison. Before treatment with test samples and positive control (Allantoin), a controlled mean wound of about 1 mm length is created on the skin by removing epidermis using a diamond spurr tip. Four microliters of test samples or Allantoin (positive control) are applied on the wound followed by incubation of the tissue for 6 days, and then harvesting of the tissues in order for hematoxylin and eosin staining for morphological analysis. The length of the wounds are measured and values are compared for statistical comparison with untreated Day 6 (self-healing of the skin in absence of any treatment).

[2] = tested on: melanocytes; experiment: Melanin synthesis inhibition, separate assay, Table 2a; type: cell-based, human; conditions: sample concentrations per Table 2b
Description: In a separate assay melanin synthesis is quantified as follows. Cells are first rinsed with PBS to remove any residual solution and 200 μl NaOH is added to each cell. The plates are shaken for 4 hours to solubilize melanin produced by melanocytes. Solubilized melanin is measured by a spectrometer at 490 nm.

[3] = tested on: darkly pigmented human epidermal melanocyte cell model; experiment: Melanin synthesis in melanocytes (NaOH solubilized melanin, 490 nm), Table 2; type: cell-based; conditions: for Change from untreated (reduction in melanin synthesis) / Melanin Synthesis: after 5 day of treatment; for Melanin Synthesis: relative to untreated (100%); for inhibits melanin synthesis: 5 day
Description: (§1) In order to evaluate the melanin synthesis inhibition activity of hexylresorcinol, licorice extract and the combination thereof at certain concentrations, In vitro studies are conducted on darkly pigmented human epidermal melanocyte cell model. Darkly pigmented melanocytes cells are placed on 24-well plates. As a positive control, 0.00025% hydroquinone is used. Hexylresorcinol, licorice extract, and hydroquinone solutions are prepared as follows. […] For combination treatment, 2× solutions of hexylresorcinol and licorice extract are mixed. For single treatment, 2× solutions are mixed with the equal volume of media. Test samples are listed in Table 1. • 0.5 ml of each test sample is directly applied to the 24-well plates in triplicates. After 5 day of treatment, melanocyte viability and melanin synthesis are measured. Melanin synthesis is quantified as follows. Cells are first rinsed with PBS to remove any residual solution and 200 μl NaOH is added to each cell. The plates are shaken for 4 hours to solubilize melanin produced by melanocytes. Solubilized melanin is measured by a spectrometer at 490 nm.

[4] = tested on: darkly pigmented human epidermal melanocyte cell model; experiment: Melanocyte viability, Alamar Blue; type: cell-based; conditions: melanocytes, after 5 day of treatment, relative to untreated (100%)
Description: as §1, with “Melanocyte viability” for “Melanin synthesis”, “using Alamar Blue solution, which is a nontoxic dye commonly used” for “as follows. Cells are first rinsed with PBS”, “assess cell viability.” for “remove any residual solution and 200 μl NaOH is added to each cell. The plates are shaken for 4 hours to solubilize melanin produced by melanocytes. Solubilized melanin is measured by a spectrometer at 490 nm.”

[5] = tested on: MelanoDerm tissues; experiment: Melanin synthesis inhibition in MelanoDerm tissues, separate assay, Table 3a; type: cell-based
Description: In a separate assay, further comparisons are made to 2% kojic acid solution, which is the industry standard for in vitro tissue testing, and market-based product that is hydroquinone free (“MB HQ Free”) but contains kojic acid and other skin brightening ingredients. In total, 31 prototypes are prepared, and 26 of those are assessed in MelanoDerm™ tissues, as described above.

SMILES	Melanin Synthesis Inhibition (% inhibition vs. untreated) [2]	Change from untreated (reduction in melanin synthesis) [3]	Melanin Synthesis [3]	Viability [4]	further results
NC(=O)NC1NC(=O)NC1=O (stereo not shown) [Allantoin]	–	–	–	–	Percent (%) Reduction in Wound Width Relative to the Untreated Day 6 ([1]; Day 6): 68%; Mean Wound Width Day 6 ([1]; Day 6 after four microliters applied on wound, N=6, untreated Day 6 874): 280 μm
Oc1ccc(O)cc1 [Control, hydroquinone, reference compound]	20.6%	24.3%	75.7% ± 0.9%	92% ± 1%	–
CCCCCCc1ccc(O)cc1O [HR1, hexylresorcinol]	–	6.9%	93.1% ± 0.7%	95% ± 3%	–
CCCCCCc1ccc(O)cc1O [HR2, hexylresorcinol]	–	2.1%	97.9% ± 2.1%	105% ± 8%	–
CCCCCCc1ccc(O)cc1O [HR 1, hexylresorcinol]	10.4%	–	–	–	–
CCCCCCc1ccc(O)cc1O [HR 2, hexylresorcinol]	10.2%	–	–	–	–
CCCCCCc1ccc(O)cc1O [HR 3, hexylresorcinol]	9.3%	–	–	–	–
CCCCCCc1ccc(O)cc1O [HR 4, hexylresorcinol]	8.8%	–	–	–	–
O=c1cc(CO)occ1O [Kojic Acid, kojic acid]	–	–	–	–	Melanin Synthesis Inhibition Relative to Untreated (% inhibition) [5]: 73.51%
CCCCCCc1ccc(O)cc1O [hexylresorcinol]	–	–	–	–	inhibits melanin synthesis ([3]; 0.0001% hexylresorcinol): 2.1%; inhibits melanin synthesis ([3]; 0.00025% hexylresorcinol): 6.9%
